Data published in patent US5368707A, “Convenient determination of trace lead in whole blood and other fluids” (priority 1993, dated 1994).
Entries after “also recorded” stand apart in the source; their conditions may differ.

Key:
isocitrate dehydrogenase = biological target: T1, isocitrate dehydrogenase (Sus scrofa, UniProt P33198); experiment: Effect of complexing agents and other assay components on isocitrate dehydrogenase activity and its lead inhibition; assay type: biochemical, pig
T1 construct: purchased Sigma, St. Louis, Mo; ICD Type VI
T1 sequence (P33198 9-421): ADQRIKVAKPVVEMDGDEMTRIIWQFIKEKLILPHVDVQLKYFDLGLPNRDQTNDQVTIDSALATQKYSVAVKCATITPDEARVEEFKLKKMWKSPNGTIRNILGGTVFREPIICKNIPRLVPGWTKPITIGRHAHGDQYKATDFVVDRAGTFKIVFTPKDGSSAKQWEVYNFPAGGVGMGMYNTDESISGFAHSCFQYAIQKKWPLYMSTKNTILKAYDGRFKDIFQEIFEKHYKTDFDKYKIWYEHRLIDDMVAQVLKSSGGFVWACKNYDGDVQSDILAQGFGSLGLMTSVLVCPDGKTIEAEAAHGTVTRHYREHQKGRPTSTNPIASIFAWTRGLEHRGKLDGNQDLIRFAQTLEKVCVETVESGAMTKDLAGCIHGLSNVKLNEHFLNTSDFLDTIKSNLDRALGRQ
From the text: Any agent used for displacing lead from the EDTA complex must not interfere with the function or activity of the enzyme employed for detection. […] Other auxiliary complexing agents may also be useful, including iminodiacetate, citrate and lithium ion. Li^+1 is known to weaken lead ion binding to bovine serum albumin and is contemplated to be effective in displacing Pb^2+ from the complex.
To solve this problem, the inventors have employed strong chelating reagents to sequester lead ion from interfering blood proteins subsequent to release of the lead from the selected chelating reagent.

alcohol dehydrogenase = system: alcohol dehydrogenase
Procedure: A bioelectrode was prepared from colloidal gold adsorbed alcohol dehydrogenase according the procedure of Example 2 for ICD. Measurements were made in the microcell as described in Example 1 using various concentrations of mercury.

[1] = colloidal gold/ADH bioelectrode

| Compound | effect on ICDH activity / lead inhibition of ICDH (isocitrate dehydrogenase) | further results |
| --- | --- | --- |
| c1ccc(-c2ccccc2)cc1 [biphenyl] | do not interfere with electrochemical detection of lead by ICDH inhibition |  |
| CC(=O)O [acetate] | the activity, stability and lead inhibition are not adversely affected |  |
| O=C(O)CN(CCN(CC(=O)O)CC(=O)O)CC(=O)O [EDTA] | adversely affect lead ion inhibition of isocitric dehydrogenase |  |
| C[n+]1c2ccccc2nc2ccccc21 [NMP-MS, N-methylphenazine methosulfate] | interfered with inhibition of the enzyme by added lead ion |  |
| mercury ion |  | detection range (alcohol dehydrogenase; colloidal gold adsorbed ADH biosensor): nanomolar range; amperometric response (alcohol dehydrogenase; [1]): linear response in at nanomolar levels; reversibility of inhibition (alcohol dehydrogenase; [1]): irreversible; specificity of inhibition (alcohol dehydrogenase; in the presence of added lead ion): specific for mercury in the presence of added lead ion |
| O=C(O)[C@@H](S)[C@@H](S)C(=O)O [DMSA, meso 2,3-dimercaptosuccinic acid] | do not interfere with electrochemical detection of lead by ICDH inhibition; also recorded: the activity, stability and lead inhibition are not adversely affected |  |
| c1cnc2c(c1)ccc1cccnc12 [o-phenanthroline] | do not interfere with electrochemical detection of lead by ICDH inhibition; also recorded: the activity, stability and lead inhibition are not adversely affected |  |
| [Mg+2] [Mg^+2] |  | effectiveness as cofactor of isocitric dehydrogenase (isocitrate dehydrogenase; compared with Mn2+, millimolar concentrations): equally effective |
| c1ccc(-c2ccccn2)nc1 [dipyridyl] | the activity, stability and lead inhibition are not adversely affected |  |
